From patent US20230148005A1, “MACROCYCLIC COMPOUNDS AND USES THEREOF” (THESEUS PHARMACEUTICALS, INC., priority 2020, published 2023)

How the values were obtained:
EGFR^L858R/T790M/C^797S = EGFR^L858R/T790M/C^797S (Homo sapiens, UniProt P00533, C797S/L858R/T790M); assay: in vitro kinase assay (HTRF KinEASE-TK kit), LTC; format: biochemical; details: kinase inhibition
Text: (§1) Assays using an in vitro kinase assay kit (HTRF KinEASE-TK kit) can be used to study the inhibitory activity of compounds described herein with respect to EGFR mutants such as EGFR^L858R, EGFR^L58R/T790M, and EGFR^L858R/T790M/C^797S.

EGFR^L58R/T790M = EGFR^L58R/T790M (Homo sapiens, UniProt P00533, L858R/T790M); assay: in vitro kinase assay (HTRF KinEASE-TK kit), LT; format: biochemical; details: kinase inhibition
Text: as §1

EGFR^L858R = EGFR^L858R (Homo sapiens, UniProt P00533, L858R); assay: in vitro kinase assay (HTRF KinEASE-TK kit), L; format: biochemical; details: kinase inhibition
Text: as §1

[1] = target: Ba/F3 EGFR-Del19/T790M/C797S (Homo sapiens, UniProt P00533, T790M/C797S, cells depend on it, form not given); assay: Ba/F3 viability assay (CellTiter-Glo), DTC; format: cell-based; details: anti-proliferation, read-out: BaF3 DTC IC50
Text: (§2) Inhibition of cell proliferation can be studied using Ba/F3 viability assays, including the Promega CellTiter-Glo cell viability assay. This assay can be used to study the effect of compounds described herein in the following assays: (1) Ba/F3 Parental; (2) Ba/F3 EGFR-Del19/T790M; (3); Ba/F3 EGFR-Del19/C797S; and (4) Ba/F3 EGFR-Del19/T790M/C797S.

Ba/F3 EGFR-Del19/T790M = Ba/F3 EGFR-Del19/T790M (Homo sapiens, UniProt P00533, T790M, cells depend on it, form not given); assay: Ba/F3 viability assay (CellTiter-Glo), DT; format: cell-based; details: anti-proliferation, read-out: BaF3 DT IC50
Text: as §2

Ba/F3 EGFR-Del19/C797S = Ba/F3 EGFR-Del19/C797S (Homo sapiens, UniProt P00533, C797S, cells depend on it, form not given); assay: Ba/F3 viability assay (CellTiter-Glo), DC; format: cell-based; details: anti-proliferation, read-out: BaF3 DC IC50
Text: as §2

Ba/F3 Parental = assay: Ba/F3 viability assay (CellTiter-Glo), parental; format: cell-based; details: Mus musculus, BaF3, anti-proliferation
Text: as §2

Sequence of Ba/F3 EGFR-Del19/T790M (P00533 with tags, fused parts or gaps DEL746-750/T790M, form open): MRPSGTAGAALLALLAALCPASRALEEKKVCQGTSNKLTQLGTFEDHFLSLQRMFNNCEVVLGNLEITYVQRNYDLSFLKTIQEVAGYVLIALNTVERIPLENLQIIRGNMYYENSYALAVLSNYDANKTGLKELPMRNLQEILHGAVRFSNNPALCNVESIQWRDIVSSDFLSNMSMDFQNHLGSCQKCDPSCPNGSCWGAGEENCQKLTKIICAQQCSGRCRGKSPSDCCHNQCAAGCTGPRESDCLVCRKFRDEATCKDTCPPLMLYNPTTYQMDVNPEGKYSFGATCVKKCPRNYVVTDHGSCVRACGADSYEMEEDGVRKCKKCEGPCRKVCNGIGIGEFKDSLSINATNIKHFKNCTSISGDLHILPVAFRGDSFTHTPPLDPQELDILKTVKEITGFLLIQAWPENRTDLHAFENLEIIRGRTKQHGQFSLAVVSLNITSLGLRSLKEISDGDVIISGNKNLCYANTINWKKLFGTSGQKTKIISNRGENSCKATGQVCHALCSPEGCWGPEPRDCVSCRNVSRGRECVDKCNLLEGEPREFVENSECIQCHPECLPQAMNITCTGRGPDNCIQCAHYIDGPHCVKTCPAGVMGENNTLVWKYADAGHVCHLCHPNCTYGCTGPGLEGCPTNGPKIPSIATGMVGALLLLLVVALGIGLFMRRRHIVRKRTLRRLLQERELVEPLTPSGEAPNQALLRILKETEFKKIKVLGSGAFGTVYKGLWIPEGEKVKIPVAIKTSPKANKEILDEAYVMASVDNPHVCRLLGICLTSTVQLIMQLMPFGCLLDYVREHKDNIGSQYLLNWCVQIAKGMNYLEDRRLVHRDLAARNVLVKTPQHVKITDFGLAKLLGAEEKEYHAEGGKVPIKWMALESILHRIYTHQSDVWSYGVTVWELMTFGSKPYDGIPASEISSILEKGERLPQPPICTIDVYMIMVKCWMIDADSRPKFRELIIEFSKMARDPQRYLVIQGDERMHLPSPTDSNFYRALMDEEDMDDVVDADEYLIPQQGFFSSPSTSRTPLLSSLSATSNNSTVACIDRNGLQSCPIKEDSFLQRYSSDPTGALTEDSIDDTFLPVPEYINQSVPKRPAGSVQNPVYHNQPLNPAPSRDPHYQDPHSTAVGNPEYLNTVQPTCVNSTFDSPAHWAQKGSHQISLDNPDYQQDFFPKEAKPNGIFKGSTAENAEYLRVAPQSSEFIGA
Sequence of EGFR^L58R/T790M (P00533 25-1210 T790M/L858R): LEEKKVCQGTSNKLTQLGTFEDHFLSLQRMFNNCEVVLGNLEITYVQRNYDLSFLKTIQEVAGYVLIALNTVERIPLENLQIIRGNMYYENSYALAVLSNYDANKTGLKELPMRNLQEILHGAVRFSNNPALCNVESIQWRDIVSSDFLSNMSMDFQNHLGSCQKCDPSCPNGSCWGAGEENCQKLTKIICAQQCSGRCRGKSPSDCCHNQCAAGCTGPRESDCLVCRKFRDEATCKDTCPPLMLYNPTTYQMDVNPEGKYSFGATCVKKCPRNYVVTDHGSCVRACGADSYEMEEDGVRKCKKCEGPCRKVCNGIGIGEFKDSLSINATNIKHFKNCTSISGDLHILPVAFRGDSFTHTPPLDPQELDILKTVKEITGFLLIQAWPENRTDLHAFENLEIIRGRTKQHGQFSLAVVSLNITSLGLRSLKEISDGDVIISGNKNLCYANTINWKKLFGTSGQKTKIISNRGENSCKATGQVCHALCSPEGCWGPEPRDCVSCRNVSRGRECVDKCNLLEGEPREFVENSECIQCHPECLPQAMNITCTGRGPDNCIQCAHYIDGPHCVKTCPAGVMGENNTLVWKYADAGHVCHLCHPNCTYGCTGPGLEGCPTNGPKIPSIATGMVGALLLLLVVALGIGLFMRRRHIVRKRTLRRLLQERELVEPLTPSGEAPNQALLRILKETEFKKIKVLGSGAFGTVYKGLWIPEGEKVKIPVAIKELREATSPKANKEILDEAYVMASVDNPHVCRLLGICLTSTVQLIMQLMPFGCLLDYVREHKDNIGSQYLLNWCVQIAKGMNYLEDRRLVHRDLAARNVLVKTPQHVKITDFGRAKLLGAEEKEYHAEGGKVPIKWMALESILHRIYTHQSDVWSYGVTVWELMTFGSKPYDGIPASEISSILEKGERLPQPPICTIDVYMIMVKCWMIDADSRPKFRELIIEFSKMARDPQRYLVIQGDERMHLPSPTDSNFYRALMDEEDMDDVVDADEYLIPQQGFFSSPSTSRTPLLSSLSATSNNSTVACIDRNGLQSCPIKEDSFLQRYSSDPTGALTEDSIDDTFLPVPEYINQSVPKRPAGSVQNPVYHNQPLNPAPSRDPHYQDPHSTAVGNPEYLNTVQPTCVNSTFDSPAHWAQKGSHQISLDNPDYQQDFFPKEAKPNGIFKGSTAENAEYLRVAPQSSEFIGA
Sequence of EGFR^L858R/T790M/C^797S (P00533 25-1210 T790M/C797S/L858R): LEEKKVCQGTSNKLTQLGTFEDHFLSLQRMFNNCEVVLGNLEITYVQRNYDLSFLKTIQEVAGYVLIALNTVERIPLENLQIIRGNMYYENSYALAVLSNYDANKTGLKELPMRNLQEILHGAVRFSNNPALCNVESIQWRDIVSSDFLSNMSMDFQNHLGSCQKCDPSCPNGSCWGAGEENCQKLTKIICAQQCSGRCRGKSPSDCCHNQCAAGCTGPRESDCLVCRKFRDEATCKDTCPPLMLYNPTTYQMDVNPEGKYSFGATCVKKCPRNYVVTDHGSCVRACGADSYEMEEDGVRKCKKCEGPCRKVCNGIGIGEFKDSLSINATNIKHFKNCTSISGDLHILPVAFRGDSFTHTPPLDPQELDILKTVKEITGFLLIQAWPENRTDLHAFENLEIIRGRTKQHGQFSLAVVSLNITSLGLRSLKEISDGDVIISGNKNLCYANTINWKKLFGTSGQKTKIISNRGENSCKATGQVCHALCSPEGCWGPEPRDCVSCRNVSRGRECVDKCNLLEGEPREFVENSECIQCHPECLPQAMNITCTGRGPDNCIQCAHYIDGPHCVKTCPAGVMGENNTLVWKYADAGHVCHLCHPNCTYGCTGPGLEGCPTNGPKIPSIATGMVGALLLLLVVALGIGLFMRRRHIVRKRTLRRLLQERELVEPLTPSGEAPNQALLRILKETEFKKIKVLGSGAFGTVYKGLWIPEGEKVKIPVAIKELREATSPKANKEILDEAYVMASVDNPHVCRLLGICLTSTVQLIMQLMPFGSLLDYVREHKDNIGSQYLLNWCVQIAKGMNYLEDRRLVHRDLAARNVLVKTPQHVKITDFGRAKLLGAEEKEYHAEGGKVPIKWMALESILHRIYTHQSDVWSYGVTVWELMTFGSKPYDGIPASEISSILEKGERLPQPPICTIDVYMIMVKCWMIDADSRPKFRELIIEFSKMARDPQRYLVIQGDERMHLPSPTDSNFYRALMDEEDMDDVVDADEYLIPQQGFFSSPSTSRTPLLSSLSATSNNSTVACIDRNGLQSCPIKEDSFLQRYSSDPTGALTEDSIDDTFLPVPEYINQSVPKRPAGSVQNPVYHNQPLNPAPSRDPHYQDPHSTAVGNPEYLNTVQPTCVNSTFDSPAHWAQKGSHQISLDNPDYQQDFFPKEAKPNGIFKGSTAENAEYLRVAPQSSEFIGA
Sequence of EGFR^L858R (P00533 25-1210 L858R): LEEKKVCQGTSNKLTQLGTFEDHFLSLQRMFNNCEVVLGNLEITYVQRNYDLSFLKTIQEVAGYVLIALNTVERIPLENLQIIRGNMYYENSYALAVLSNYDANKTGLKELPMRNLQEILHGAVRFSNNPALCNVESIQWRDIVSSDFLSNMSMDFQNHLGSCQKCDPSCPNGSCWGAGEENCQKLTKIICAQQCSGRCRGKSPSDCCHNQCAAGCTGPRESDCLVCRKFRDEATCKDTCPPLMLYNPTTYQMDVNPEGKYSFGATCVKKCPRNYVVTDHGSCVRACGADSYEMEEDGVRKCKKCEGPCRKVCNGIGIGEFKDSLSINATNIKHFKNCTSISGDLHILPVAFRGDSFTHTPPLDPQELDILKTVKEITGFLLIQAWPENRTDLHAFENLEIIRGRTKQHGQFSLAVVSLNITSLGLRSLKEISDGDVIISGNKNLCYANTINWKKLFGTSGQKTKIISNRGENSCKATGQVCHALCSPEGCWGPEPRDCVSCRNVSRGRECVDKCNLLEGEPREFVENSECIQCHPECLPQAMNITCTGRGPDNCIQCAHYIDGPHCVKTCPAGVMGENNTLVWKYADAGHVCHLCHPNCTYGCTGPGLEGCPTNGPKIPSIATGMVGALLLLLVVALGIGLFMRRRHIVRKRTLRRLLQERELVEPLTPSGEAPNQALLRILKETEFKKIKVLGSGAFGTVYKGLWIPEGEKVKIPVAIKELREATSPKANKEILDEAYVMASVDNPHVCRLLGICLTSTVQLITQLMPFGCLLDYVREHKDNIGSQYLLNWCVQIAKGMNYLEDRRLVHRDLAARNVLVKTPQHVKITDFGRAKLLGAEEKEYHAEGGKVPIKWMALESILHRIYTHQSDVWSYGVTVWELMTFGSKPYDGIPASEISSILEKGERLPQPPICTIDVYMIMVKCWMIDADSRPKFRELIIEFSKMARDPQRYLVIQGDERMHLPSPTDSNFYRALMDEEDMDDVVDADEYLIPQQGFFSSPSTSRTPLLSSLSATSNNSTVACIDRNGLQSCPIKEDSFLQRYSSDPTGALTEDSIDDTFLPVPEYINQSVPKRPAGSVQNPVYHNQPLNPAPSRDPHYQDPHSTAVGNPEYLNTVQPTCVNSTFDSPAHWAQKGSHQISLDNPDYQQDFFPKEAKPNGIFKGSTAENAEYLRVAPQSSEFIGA

`CC1CCCOc2c(cnn2C)-c2nccc(n2)Nc2cc3c(cn2)c(N2CCC2)nn31` (centres unmarked) [(1)] gave an IC50 (EGFR^L858R/T790M/C^797S) of under 10 nM, an IC50 (EGFR^L58R/T790M) of under 10 nM and an IC50 (EGFR^L858R) of under 10 nM. The GI50 [1] was under 10 nM, the GI50 (Ba/F3 EGFR-Del19/T790M) was under 10 nM and the GI50 (Ba/F3 EGFR-Del19/C797S) was 10 to 100 nM. It also gave an IC50 (Ba/F3 Parental) of 100 to 1000 nM.
`CC1CCOc2c(cnn2CC2CC2)-c2nccc(n2)Nc2cc3c(cn2)c(N2CCC2)nn31` (centres unmarked) [(2)] was tested, and the IC50 (EGFR^L858R/T790M/C^797S) was under 10 nM, the IC50 (EGFR^L58R/T790M) was under 10 nM and the IC50 (EGFR^L858R) was 10 to 100 nM. It also gave a GI50 [1] of 10 to 100 nM, a GI50 (Ba/F3 EGFR-Del19/T790M) of 10 to 100 nM and a GI50 (Ba/F3 EGFR-Del19/C797S) of 10 to 100 nM. The IC50 (Ba/F3 Parental) was 100 to 1000 nM.
`Cn1ncc2c1OCCCn1nc(N3CCC3)c3cnc(cc31)Nc1ccnc-2n1` [(3)] was tested, and the IC50 (EGFR^L858R/T790M/C^797S) was under 10 nM, the IC50 (EGFR^L58R/T790M) was under 10 nM and the IC50 (EGFR^L858R) was 10 to 100 nM. It also gave a GI50 [1] of 100 to 1000 nM, a GI50 (Ba/F3 EGFR-Del19/T790M) of 10 to 100 nM and a GI50 (Ba/F3 EGFR-Del19/C797S) of 100 to 1000 nM. For the same compound, the IC50 (Ba/F3 Parental) was 100 to 1000 nM.
In the case of `Cn1ncc2c1OCCC(C)(C)n1nc(N3CCC3)c3cnc(cc31)Nc1ccnc-2n1` [(4), 19-(azetidin-1-yl)-11,16,16-trimethyl-13-oxa-2,6,10,11,17,18,22,25-octazapentacyclo[15.5.2.1^3,7.0^8,12.0^20,24]pentacosa-1(22),3,5,7(25),8(12),9,18,20,23-nonaene], the IC50 (EGFR^L858R/T790M/C^797S) is reported as under 10 nM, the IC50 (EGFR^L58R/T790M) is reported as under 10 nM and the IC50 (EGFR^L858R) is reported as 100 to 1000 nM. For the same compound, the GI50 [1] was 100 to 1000 nM, the GI50 (Ba/F3 EGFR-Del19/T790M) was 100 to 1000 nM and the GI50 (Ba/F3 EGFR-Del19/C797S) was 100 to 1000 nM. The IC50 (Ba/F3 Parental) was at least 1000 nM.
For `CCC1CCOc2c(cnn2C)-c2nccc(n2)Nc2cc3c(cn2)c(N2CCC2)nn31` (centres unmarked) [(5)], the IC50 (EGFR^L858R/T790M/C^797S) was under 10 nM, the IC50 (EGFR^L58R/T790M) was under 10 nM and the IC50 (EGFR^L858R) was 10 to 100 nM. The GI50 [1] was 10 to 100 nM, the GI50 (Ba/F3 EGFR-Del19/T790M) was 10 to 100 nM and the GI50 (Ba/F3 EGFR-Del19/C797S) was 10 to 100 nM. It also gave an IC50 (Ba/F3 Parental) of at least 1000 nM.
In the case of `CC1COc2c(cnn2C)-c2nccc(n2)Nc2cc3c(cn2)c(N2CCC2)nn3C1` (centres unmarked) [(6)], the IC50 (EGFR^L858R/T790M/C^797S) is reported as under 10 nM, the IC50 (EGFR^L58R/T790M) is reported as under 10 nM and the IC50 (EGFR^L858R) is reported as 10 to 100 nM. The GI50 [1] was 10 to 100 nM, the GI50 (Ba/F3 EGFR-Del19/T790M) was 10 to 100 nM and the GI50 (Ba/F3 EGFR-Del19/C797S) was 10 to 100 nM. It also gave an IC50 (Ba/F3 Parental) of 100 to 1000 nM.
Compound `CC1CCOc2c(cnn2C)-c2nccc(n2)Nc2cc3c(cn2)c(N2CC(C(C)(C)O)C2)nn31` (centres unmarked) [(8)] has an IC50 (EGFR^L858R/T790M/C^797S) of under 10 nM, an IC50 (EGFR^L58R/T790M) of under 10 nM and an IC50 (EGFR^L858R) of 10 to 100 nM. The GI50 [1] was 10 to 100 nM, the GI50 (Ba/F3 EGFR-Del19/T790M) was 10 to 100 nM and the GI50 (Ba/F3 EGFR-Del19/C797S) was 10 to 100 nM. It also gave an IC50 (Ba/F3 Parental) of 100 to 1000 nM.
Compound `CN1CCN(CC2CCCN2c2nn3c4cc(ncc24)Nc2ccnc(n2)-c2cnn(C)c2OCCC3)CC1` (centres unmarked) [(10)] has an IC50 (EGFR^L858R/T790M/C^797S) of under 10 nM, an IC50 (EGFR^L58R/T790M) of under 10 nM and an IC50 (EGFR^L858R) of 100 to 1000 nM. It also gave a GI50 [1] of 100 to 1000 nM, a GI50 (Ba/F3 EGFR-Del19/T790M) of 100 to 1000 nM and a GI50 (Ba/F3 EGFR-Del19/C797S) of 100 to 1000 nM. The IC50 (Ba/F3 Parental) was 100 to 1000 nM.
`CN(C)CC1CCCN1c1nn2c3cc(ncc13)Nc1ccnc(n1)-c1cnn(C)c1OCCC2` (centres unmarked) [(11)] gave an IC50 (EGFR^L858R/T790M/C^797S) of under 10 nM, an IC50 (EGFR^L58R/T790M) of under 10 nM and an IC50 (EGFR^L858R) of 100 to 1000 nM. For the same compound, the GI50 [1] was 100 to 1000 nM, the GI50 (Ba/F3 EGFR-Del19/T790M) was 100 to 1000 nM and the GI50 (Ba/F3 EGFR-Del19/C797S) was 100 to 1000 nM. For the same compound, the IC50 (Ba/F3 Parental) was 100 to 1000 nM.
`CC1CCOc2c(cnn2C)-c2nccc(n2)Nc2cc3c(cn2)c(-c2cccn2CCN(C)C)nn31` (centres unmarked) [(12), 2-[2-(11,16-dimethyl-13-oxa-2,6,10,11,17,18,22,25-octazapentacyclo[15.5.2.13,7.08,12.020,24]pentacosa-1(22),3,5,7(25),8(12),9,18,20,23-nonaen-19-yl)pyrrol-1-yl]-N,N-dimethyl-ethanamine] showed an IC50 (EGFR^L858R/T790M/C^797S) of under 10 nM, an IC50 (EGFR^L58R/T790M) of under 10 nM and an IC50 (EGFR^L858R) of 10 to 100 nM. For the same compound, the GI50 [1] was 10 to 100 nM, the GI50 (Ba/F3 EGFR-Del19/T790M) was 10 to 100 nM and the GI50 (Ba/F3 EGFR-Del19/C797S) was 10 to 100 nM. For the same compound, the IC50 (Ba/F3 Parental) was 100 to 1000 nM.
In the case of `CN(C)CC1CCN(c2nn3c4cc(ncc24)Nc2ccnc(n2)-c2cnn(C)c2OCCC3)C1` (centres unmarked) [(13)], the IC50 (EGFR^L858R/T790M/C^797S) is reported as under 10 nM, the IC50 (EGFR^L58R/T790M) is reported as under 10 nM and the IC50 (EGFR^L858R) is reported as 10 to 100 nM. For the same compound, the GI50 [1] was 10 to 100 nM, the GI50 (Ba/F3 EGFR-Del19/T790M) was 10 to 100 nM and the GI50 (Ba/F3 EGFR-Del19/C797S) was 100 to 1000 nM. The IC50 (Ba/F3 Parental) was 100 to 1000 nM.
`CC1CCOc2ccncc2-c2nccc(n2)Nc2cc3c(cn2)c(N2CCC2)nn31` (centres unmarked) [(14), 20-(azetidin-1-yl)-17-methyl-14-oxa-2,6,10,18,19,23,26-heptazapentacyclo[16.5.2.13,7.08,13.021,25]hexacosa-1(23),3,5,7(26),8(13),9,11,19,21,24-decaene] was tested, and the IC50 (EGFR^L858R/T790M/C^797S) was under 10 nM, the IC50 (EGFR^L58R/T790M) was under 10 nM and the IC50 (EGFR^L858R) was under 10 nM. It also gave a GI50 [1] of under 10 nM, a GI50 (Ba/F3 EGFR-Del19/T790M) of under 10 nM and a GI50 (Ba/F3 EGFR-Del19/C797S) of under 10 nM. The IC50 (Ba/F3 Parental) was 10 to 100 nM.
`CC1CCOc2c(cnn2C)-c2nccc(n2)Nc2cc3c(cn2)c(N2CC(C(=O)N(C)C)C2)nn31` (centres unmarked) [(16)] gave an IC50 (EGFR^L858R/T790M/C^797S) of under 10 nM, an IC50 (EGFR^L58R/T790M) of under 10 nM and an IC50 (EGFR^L858R) of 10 to 100 nM. It also gave a GI50 [1] of 10 to 100 nM, a GI50 (Ba/F3 EGFR-Del19/T790M) of 10 to 100 nM and a GI50 (Ba/F3 EGFR-Del19/C797S) of 10 to 100 nM. It also gave an IC50 (Ba/F3 Parental) of 100 to 1000 nM.
In the case of `CC1CCOc2c(cnn2C)-c2nccc(n2)Nc2cc3c(cn2)c(N2CCC2)nn31` (centres unmarked) [(33), 17-(azetidin-1-yl)-20,27-dimethyl-30-oxa-21,22,23,24,25,26,27,28-octazapentacyclopentacosa-2,4(14),5(22),6(23),12(24),13(15),16(18),17(25),19(21)-nonaene], the IC50 (EGFR^L858R/T790M/C^797S) is reported as under 10 nM, the IC50 (EGFR^L58R/T790M) is reported as under 10 nM and the IC50 (EGFR^L858R) is reported as 10 to 100 nM. For the same compound, the GI50 [1] was 10 to 100 nM, the GI50 (Ba/F3 EGFR-Del19/T790M) was 10 to 100 nM and the GI50 (Ba/F3 EGFR-Del19/C797S) was 10 to 100 nM. It also gave an IC50 (Ba/F3 Parental) of at least 1000 nM.
